These results are taken from publication PMC6234689 (International Journal of Retina and Vitreous, 2018).

In data set [1] the test system is rabbit retina. In words: Fundus imaging after intravitreal injection. The following applies: intravitreal 40 µg/0.05 ml, observational period of 7 days. It is filed as in vivo, New Zealand rabbits. The procedure: (§1) Baseline electroretinogram (ERG) was obtained for rabbits prior the intravitreal injection as the method described below. […] The effective dose was calculated from the previous study performed in our lab.
Following Electroretinogram (ERG) study, rabbit retina was focused and fundus images of both eyes were recorded using streampix software using MICRON III rodent imaging system (Phoenix Lab, USA) after subjecting them for ERG.

Another data set in a line: in vivo. The following applies: New Zealand, rabbit, 40 µg.
For data set [2] the following is noted: rabbit, intravitreal 40 µg/50 µL.
Data set [3] relates to rabbit retina. Particulars: intravitreal 40 µg/50 µL, 24, 48, 72 and 168 h. Here is the method: as §1
The test system of data set [4] is progression of retinopathy. Also on record: method as in PMID 9726242. Particulars: EUCLID Study, diabetic patients; cited from earlier work.
Data set [5] in a line: Stability of intravitreal formulation after thermal sterilization by autoclaving. The data set is classed as physicochemical. The following applies: 0.08% w/v in sterile saline, concentration before and after autoclaving. From the text: After checking it for pH, it was filled, sealed in glass ampoules and subjected for autoclaving.

Structures are written as SMILES.

One may read the half-life as the time in which the quantity being followed falls by half. Read a low half-life as rapid decline.

In the case of `NCCCC[C@H](N[C@@H](CCc1ccccc1)C(=O)O)C(=O)N1CCC[C@H]1C(=O)O` [lisinopril], the “morphological changes in the retina on fundus images” value in the data set with rabbit retina [1] was “no significant morphological changes”. This compound had a half-life in the data set “in vivo” (in vivo) of 12.6 h. This compound gave a half-life in the data set “in vivo” (vitreous humour) of 41.5 h. For the same compound, in data set [2] (at 1 h), the “lisinopril concentration in retina-choroid (highest)” value is 7 µg and the “lisinopril concentration in the vitreous humour (highest)” value is given as 14.52 µg. In addition, in data set [2] (at 2 h), the “maximum concentration in sclera” value was 6.6 µg. Also, the “'a' and 'b' wave amplitude of ERG compared to baseline” value in the data set with rabbit retina [3] is reported as “No changes were observed”. Besides, the “reduction of the risk of progression of retinopathy” value in data set [4] is reported as “approximately 50%”. Moreover, in data set [5], the “stability of formulation after thermal sterilization by autoclaving” value was “stable”.
